This note sets out measurements from patent publication US8501732B2, “Aminomethyl quinolone compounds” (Hoffmann-La Roche Inc., priority 2011, dated 2013).

Assay [1] relates to phospho(Ser63)-c-jun in HK-2 cells. Briefly: Cell-Based Assay for JNK Inhibitors (in-cell ELISA, phospho(Ser63)-c-jun after TNFα). Particulars: HK-2 cells (human proximal tubule cells), 60 minutes compound, then 10 ng/mL TNFα for 30 minutes. Put shortly: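 HK-2 human proximal tubule cells were seeded at 40,000 cells/well, cultured 24 h, then serum-starved 16–24 h before TNFα stimulation with compound. Phospho(Ser63)-c-jun was quantified by in-cell ELISA on fixed, permeabilised cells, using a rabbit phospho-specific primary (overnight, 4 °C) and an HRP-linked anti-rabbit secondary. Absorbance was read at 450 nm.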
On the technique in general: In an ELISA, binding on a coated surface is turned into a signal by an enzyme label.

The target of another assay is JNK1 (Homo sapiens (Human), UniProt P45983). Briefly: In Vitro JNK1 Assay (TR-FRET, phosphorylation of GST-c-Jun). The class given is biochemical. Particulars: 0.2 nM active JNK1 kinase, 26.7 nM GST-c-Jun, 2 μM ATP, 30 min at room temperature. Put shortly: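 GST-c-Jun (residues 1-79) phosphorylation by JNK1 in 50 mM HEPES pH 7.0, MgCl2, 1 mM DTT, 0.1 mM Na3VO4, 0.2 mg/mL BSA, 30 min at room temperature. Stopped with EDTA plus anti-phospho-c-Jun antibody and read by TR-FRET 1 hr later. IC50 from percent inhibition over 10 serial dilutions.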
Chain of JNK1 (P45983 whole entry, the tested form may be a part): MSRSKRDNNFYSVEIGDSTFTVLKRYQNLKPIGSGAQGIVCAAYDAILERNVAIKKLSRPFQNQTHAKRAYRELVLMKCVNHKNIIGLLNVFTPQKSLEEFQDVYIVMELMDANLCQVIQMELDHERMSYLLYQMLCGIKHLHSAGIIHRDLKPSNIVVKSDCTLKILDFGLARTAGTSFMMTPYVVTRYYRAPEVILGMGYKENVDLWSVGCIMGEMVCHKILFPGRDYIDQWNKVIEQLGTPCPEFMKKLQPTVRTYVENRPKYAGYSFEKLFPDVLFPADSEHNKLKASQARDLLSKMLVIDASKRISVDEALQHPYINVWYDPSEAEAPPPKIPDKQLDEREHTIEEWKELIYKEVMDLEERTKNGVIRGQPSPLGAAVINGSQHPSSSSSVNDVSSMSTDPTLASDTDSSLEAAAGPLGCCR
On the technique in general: Time-resolved FRET reads energy transfer from a long-lived donor to a nearby acceptor.

`O=C(NCc1cn(-c2ccccc2)c2cc(Cl)ccc2c1=O)c1ccc(NCCO)nc1` [Example I-77, N-(7-Chloro-4-oxo-1-phenyl-1,4-dihydro-quinolin-3-ylmethyl)-6-(2-hydroxy-ethylamino)-nicotinamide] came in with an EC50 in assay [1] of 63 µM. The same compound yielded an IC50 against JNK1 of 47 nM.

In the case of `O=C(NCc1cn(-c2ccccc2)c2cc(Cl)ccc2c1=O)c1ccc(NC2CCOCC2)nc1` [Example I-78, N-(7-Chloro-4-oxo-1-phenyl-1,4-dihydro-quinolin-3-ylmethyl)-6-(tetrahydro-pyran-4-ylamino)-nicotinamide], it took 22 µM to reach a half-maximal effect in assay [1] (EC50). The IC50 at JNK1 was found to be 49 nM.

In turn, `CN(C)c1ccc(C(=O)NCc2cn(-c3ccccc3)c3cc(Cl)ccc3c2=O)cn1` [Example I-79, N-(7-Chloro-4-oxo-1-phenyl-1,4-dihydro-quinolin-3-ylmethyl)-6-dimethylamino-nicotinamide] yielded a concentration for a half-maximal effect (EC50) in assay [1] of 46 µM. Further, the IC50 on JNK1 stood at 55 nM.

In assay [1], `O=C(NCc1cn(-c2ccccc2)c2cc(Cl)ccc2c1=O)c1ccc(N2CCS(=O)(=O)CC2)nc1` [Example I-80, N-(7-Chloro-4-oxo-1-phenyl-1,4-dihydro-quinolin-3-ylmethyl)-6-(1,1-dioxo-thiomorpholin-4-yl)-nicotinamide] registered a half-maximal effective concentration (EC50) of 12 µM. Moreover, on JNK1, the IC50 came to 56 nM.

In assay [1], `CC(C)(C)OC(=O)NC1CCN(c2ccc(C(=O)NCc3cn(-c4ccccc4)c4cc(Cl)ccc4c3=O)cn2)CC1` [Example I-81, {5′-[(7-Chloro-4-oxo-1-phenyl-1,4-dihydro-quinolin-3-ylmethyl)-carbamoyl]-3,4,5,6-tetrahydro-2H-[1,2]bipyridinyl-4-yl}-carbamic acid tert-butyl ester] returned an EC50 of 100 µM. The same compound registered an IC50 against JNK1 of 65 nM.

`CN1CCCN(c2ccc(C(=O)NCc3cn(-c4ccccc4)c4cc(Cl)ccc4c3=O)cn2)CC1` [Example I-82, N-(7-Chloro-4-oxo-1-phenyl-1,4-dihydro-quinolin-3-ylmethyl)-6-(4-methyl-[1,4]diazepan-1-yl)-nicotinamide] had an EC50 in assay [1] of 19 µM. This compound returned an IC50 on JNK1 of 71 nM.

In assay [1], `O=C(NCc1cn(-c2ccccc2)c2cc(Cl)ccc2c1=O)c1ccc(N2CCN(CCO)CC2)nc1` [Example I-83, N-(7-Chloro-4-oxo-1-phenyl-1,4-dihydro-quinolin-3-ylmethyl)-6-[4-(2-hydroxy-ethyl)-piperazin-1-yl]-nicotinamide] came in with an EC50 of 12 µM. Also, on JNK1, the IC50 was determined as 81 nM.

As for `O=C(NCc1cn(-c2ccccc2)c2cc(Cl)ccc2c1=O)c1ccc(N2CCCC2)nc1` [Example I-84, N-(7-Chloro-4-oxo-1-phenyl-1,4-dihydro-quinolin-3-ylmethyl)-6-pyrrolidin-1-yl-nicotinamide], in assay [1], the concentration for a half-maximal effect (EC50) was determined as 52 µM. At JNK1, this compound showed an IC50 of 100 nM.

In assay [1], `O=C(NCc1cn(-c2ccccc2)c2cc(Cl)ccc2c1=O)c1ccc(N2CCNCC2)nc1` [Example I-85, N-(7-Chloro-4-oxo-1-phenyl-1,4-dihydro-quinolin-3-ylmethyl)-6-piperazin-1-yl-nicotinamide] displayed an EC50 of 72 µM. The compound further showed an IC50 against JNK1 of 110 nM.

`O=C(NCc1cn(-c2ccccc2)c2cc(Cl)ccc2c1=O)c1cnc(N2CCCCC2)s1` [Example I-91, 2-Piperidin-1-yl-thiazole-5-carboxylic acid (7-chloro-4-oxo-1-phenyl-1,4-dihydro-quinolin-3-ylmethyl)-amide] yielded an EC50 in assay [1] of 19 µM. On JNK1, this compound registered a half-inhibitory concentration (IC50) of 16 nM.

As for `CS(=O)(=O)C1CCN(c2ncc(C(=O)NCc3cn(-c4ccccc4)c4cc(Cl)ccc4c3=O)s2)CC1` [Example I-92, 2-(4-Methanesulfonyl-piperidin-1-yl)-thiazole-5-carboxylic acid (7-chloro-4-oxo-1-phenyl-1,4-dihydro-quinolin-3-ylmethyl)-amide], the EC50 in assay [1] turned out to be 26 µM. Also, at JNK1, the IC50 turned out to be 21 nM.

As for `O=C(NCc1cn(-c2ccccc2)c2cc(Cl)ccc2c1=O)c1cnc(N2CCC(CO)CC2)s1` [Example I-93, 2-(4-Hydroxymethyl-piperidin-1-yl)-thiazole-5-carboxylic acid (7-chloro-4-oxo-1-phenyl-1,4-dihydro-quinolin-3-ylmethyl)-amide], in assay [1], the EC50 is 100 µM. Moreover, 33 nM corresponded to half-maximal inhibition against JNK1 (IC50).

As to `O=C(NCc1cn(-c2ccccc2)c2cc(Cl)ccc2c1=O)c1cnc(N2CCC(O)CC2)s1` [Example I-94, 2-(4-Hydroxypiperidin-1-yl)-thiazole-5-carboxylic acid (7-chloro-4-oxo-1-phenyl-1,4-dihydro-quinolin-3-ylmethyl)-amide], a half-maximal effect in assay [1] (EC50) was put at 14 µM. Besides, at JNK1, the midpoint of inhibition, the IC50, lay at 36 nM.

For the compound `CN1CCN(c2ncc(C(=O)NCc3cn(-c4ccccc4)c4cc(Cl)ccc4c3=O)s2)CC1` [Example I-95, 2-(4-Methyl-piperazin-1-yl)-thiazole-5-carboxylic acid (7-chloro-4-oxo-1-phenyl-1,4-dihydro-quinolin-3-ylmethyl)-amide], in assay [1], it took 22 µM to reach a half-maximal effect (EC50). For the same compound, on JNK1, the IC50 stood at 40 nM.

In assay [1], `O=C(NCc1cn(-c2ccccc2)c2cc(Cl)ccc2c1=O)c1cnc(N2CCOCC2)s1` [Example I-96, 2-Morpholin-4-yl-thiazole-5-carboxylic acid (7-chloro-4-oxo-1-phenyl-1,4-dihydro-quinolin-3-ylmethyl)-amide] returned an EC50 of 100 µM. Further, the IC50 at JNK1 came out at 55 nM.

Take `O=C(NCc1cn(-c2ccccc2)c2cc(Cl)ccc2c1=O)c1cnc(N2CCS(=O)(=O)CC2)s1` [Example I-97, 2-(1,1-Dioxo-thiomorpholin-4-yl)-thiazole-5-carboxylic acid (7-chloro-4-oxo-1-phenyl-1,4-dihydro-quinolin-3-ylmethyl)-amide]: a half-maximal response in assay [1] (EC50) required 39 µM. At JNK1, the IC50 worked out at 69 nM.

The compound `O=C(NCc1cn(-c2ccccc2)c2cc(Cl)ccc2c1=O)c1ccc(C(=O)NC2C3CC4CC2CC(O)(C4)C3)cc1` (stereo not shown) [Example I-99, N-(7-Chloro-4-oxo-1-phenyl-1,4-dihydro-quinolin-3-ylmethyl)-N′-(5-hydroxy-adamantan-2-yl)-terephthalamide] registered an EC50 in assay [1] of 6.2 µM. For the same compound, 52 nM corresponded to half-maximal inhibition against JNK1 (IC50).

Turning to `O=C(NCc1cn(-c2ccccc2Cl)c2cc(Cl)ccc2c1=O)c1ccc(N2CCOCC2)nc1` [Example I-100], the EC50 in assay [1] was found to be 29 µM. At JNK1, half-maximal inhibition (IC50) required 90 nM.

In the case of `Cn1cc(C(=O)NCc2cn(-c3ccccc3F)c3cc(F)ccc3c2=O)cn1` [Example I-104, 1-Methyl-1H-pyrazole-4-carboxylic acid [7-fluoro-1-(2-fluoro-phenyl)-4-oxo-1,4-dihydro-quinolin-3-ylmethyl]-amide], in assay [1], a half-maximal effect (EC50) was put at 100 µM. On JNK1, the 50% inhibitory concentration (IC50) stood at 120 nM.

Compound `O=C(NCc1cn(-c2ccccc2F)c2cc(F)ccc2c1=O)c1ccc(N2CCC(CO)CC2)nc1` [Example I-106, 4-Hydroxymethyl-3,4,5,6-tetrahydro-2H-[1,2′]bipyridinyl-5′-carboxylic acid [7-fluoro-1-(2-fluoro-phenyl)-4-oxo-1,4-dihydro-quinolin-3-ylmethyl]-amide] gave an EC50 in assay [1] of 50 µM. The same compound gave an IC50 against JNK1 of 52 nM.

In assay [1], `O=C(NCc1cn(-c2ccccc2F)c2cc(F)ccc2c1=O)c1ccc(N2CCOCC2)nc1` [Example I-108, N-[7-Fluoro-1-(2-fluoro-phenyl)-4-oxo-1,4-dihydro-quinolin-3-ylmethyl]-6-morpholin-4-yl-nicotinamide] showed an EC50 of 47 µM. Also, the 50% inhibitory concentration (IC50) against JNK1 was found to be 120 nM.

In turn, `COC(=O)c1c(CNC(=O)c2ccc(S(C)(=O)=O)cc2)c(=O)c2ccc(Cl)cc2n1-c1ccccc1` [Example I-109, 7-chloro-3-[(4-methanesulfonyl-benzoylamino)-methyl]-4-oxo-1-phenyl-1,4-dihydroquin-oline-2-carboxylic acid methyl ester] showed an EC50 in assay [1] of 5.7 µM. Further, at JNK1, 4 nM corresponded to half-maximal inhibition (IC50).

In the case of `COC(=O)c1c(CNC(=O)c2ccc(-c3cnco3)cc2)c(=O)c2ccc(Cl)cc2n1-c1ccccc1` [Example I-110, 7-Chloro-3-[(4-oxazol-5-yl-benzoylamino)-methyl]-4-oxo-1-phenyl-1,4-dihydro-quinoline-2-carboxylic acid methyl ester], in assay [1], the concentration giving a half-maximal response (EC50) was found to be 4 µM. The IC50 at JNK1 was found to be 4 nM.

On to `COC(=O)c1c(CNC(=O)c2ccc(-c3nnc[nH]3)cc2)c(=O)c2ccc(Cl)cc2n1-c1ccccc1` [Example I-111, 7-Chloro-4-oxo-1-phenyl-3-{[4-(4H-[1,2,4]triazol-3-yl)-benzoylamino]-methyl}-1,4-dihydro-quinoline-2-carboxylic acid methyl ester], for which a half-maximal effect in assay [1] (EC50) was put at 1.3 µM. The compound further came in with an IC50 against JNK1 of 5 nM.

In assay [1], `COC(=O)c1c(CNC(=O)c2ccc(N3CCOCC3)nc2)c(=O)c2ccc(Cl)cc2n1-c1ccccc1` [Example I-112, 7-Chloro-3-{[(6-morpholin-4-yl-pyridine-3-carbonyl)-amino]-methyl}-4-oxo-1-phenyl-1,4-dihydro-quinoline-2-carboxylic acid methyl ester] yielded a half-maximal effective concentration (EC50) of 1.2 µM. At JNK1, half-maximal inhibition (IC50) was put at 6 nM.

`COC(=O)c1c(CNC(=O)c2ccc3scnc3c2)c(=O)c2ccc(Cl)cc2n1-c1ccccc1` [Example I-113, 3-{[(Benzothiazole-5-carbonyl)-amino]-methyl}-7-chloro-4-oxo-1-phenyl-1,4-dihydro-quinoline-2-carboxylic acid methyl ester] had an EC50 in assay [1] of 2 µM. On JNK1, the IC50 amounted to 7 nM.

In general, EC50 refers to the concentration at which the effect is half-maximal. A lower EC50 goes with greater potency. The term IC50 denotes the concentration that gives 50% inhibition. Read a high IC50 as lower potency.
